Assay results published in patent US9399675B2, “Methods and compositions for diagnosing Alzheimer's disease and age-related macular degeneration” (The Board of Regents of the University of Oklahoma, priority 2007, dated 2016).

Tests used:
HUVECs [1] = experiment: ELISA of released CAP37 in supernatants of HUVEC cultures; format: cell-based, human; conditions: supernatants of treated HUVEC cultures
Source text: Flow cytometry confirmed the studies described in FIG. 5. TNFα treated cells that were permeabilized indicated up to a 5-fold increase of CAP37 expression over untreated cells (FIG. 6). […] To determine whether CAP37 is released from treated endothelial cells, ELISA was used to analyze supernatants from TNFα treated HUVEC cultures. Levels of released CAP37 from treated HUVECs were two-fold over untreated cells (data not shown). It was clear that the amount and proportion of CAP37 released from HUVECs was in general much less than the amount and proportion of CAP37 released from PMN (6). Almost 90% of total CAP37 is released from PMN following phagocytosis (6).

HUVECs [2] = experiment: Flow cytometry of cell associated CAP37 in HUVECs; format: cell-based, human; conditions: 10 ng/ml TNFα, permeabilized HUVECs
Description: FIG. 6: Flow cytometric analysis of cell associated CAP37 in HUVECs. HUVECs were incubated 18 h in the absence (unt) or presence of 10 ng/ml TNFα (TNFα), permeabilized and labeled with antisera to human CAP37 or normal serum control. Cells were permeabilized to determine intracellular levels of CAP37. A representative histogram from two independent experiments. The shift due to FITC-staining indicates increased expression of CAP37 in TNFα stimulated cells. Also indicated is a low level of constitutive CAP37 expression (unt).
HUVECs that were serum starved for 6 h were incubated in the absence or presence of 10 ng/ml TNFα for 10 h and 18 h. Permeabilized and non-permeabilized cells were fixed and stained essentially as described by Gräbner (18). The cells were first blocked with 4% normal donkey serum (JACKSON), then incubated at 4° C. with rabbit anti-human CAP37 antisera (1:300), and followed by biotin-sp-donkey F(ab′)2 anti-rabbit IgG, (JACKSON, 1:200) at 4° C. For detection the cells were incubated with fluorescein (DTAF)-conjugated streptavidin (JACKSON) at 2 μg/ml at 4° C. Cells were analyzed by flow cytometry (FACSCALIBUR, BECTON DICKINSON, San Jose, Calif.). Unstained cells and cells stained with normal rabbit serum were included as controls.

[3] = test system: Human neuronal cells (ATCC, HCN-1A); experiment: Dot blot of released CAP37 in supernatants of human neuronal cells; format: cell-based; conditions: 75 μg/ml, 12 hrs, HCN-1A neurons
Description: FIG. 10: Dot blot analysis of supernatants from human neuronal cells in vitro with anti-CAP37 antiserum. Top row (from left to right) consists of CAP37 standards, at 20, 10, 5 and 2.5 μg/ml. 2nd row consists of doubling dilutions of supes from β-amyloid treated neuronal cultures. Row 3 consists of doubling dilutions of supes from untreated neuronal cultures. Row 4-no antigen/control.
The expression of CAP37 in neurons was further corroborated using in vitro culture. Human neuronal cells (ATCC, HCN-1A) were cultured according to specifications, transferred to serum-free medium for 6 hr and treated with β-amyloid fragment 1-42 (75 μg/ml), control peptide 40-1 (75 μg/ml), and media for 12 hrs. Supernatants were analyzed by dot blot for presence of released CAP37 (FIG. 10) and cells stained with anti-CAP37 antiserum (FIG. 11A) and normal mouse serum (FIG. 11B) to determine cell-associated CAP37.

| Substance | levels of released CAP37 over untreated cells (HUVECs [1]) | increase of CAP37 expression over untreated cells (HUVECs [2]) | concentration of released (secreted) CAP37 in supernatants [3] |
| --- | --- | --- | --- |
| TNFα | two-fold | ≤ 5 fold | – |
| β-amyloid fragment 1-42: toxic 42-amino acid beta-amyloid peptide used to induce CAP37 in human neurons | – | – | approximately 2.5 μg/ml |
